Experimental data as given in ChEMBL document CHEMBL3045356, “Synthesis and biological evaluation of a novel class as antileishmanial agent” (Med Chem Res, 2012).
The source made the active and inactive calls. No cut-off for these calls is given here.

Assays:
Leishmania major [1] = experiment: Antileishmanial activity against promastigote stage of Leishmania major MHOM/IL/81/FEBNI infected Swiss albino mouse assessed as inhibition of gangrene in inoculated footpad at 20 umol administered 21 days post infection measured after 5 weeks relative to untreated mouse; type: functional, organism-based
Leishmania major [2] = experiment: Antileishmanial activity against promastigote stage of Leishmania major MHOM/IL/81/FEBNI assessed as cell viability at 10 umol measured every day for 5 days by light microscopic analysis; type: functional, organism-based
Leishmania major [3] = experiment: Antileishmanial activity against promastigote stage of Leishmania major MHOM/IL/81/FEBNI infected Swiss albino mouse assessed as decrease in cutaneous lesion progression at 20 umol administered 21 days post infection measured after 5 weeks relative to untreated mouse; type: functional, organism-based
Leishmania major [4] = experiment: Antileishmanial activity against promastigote stage of Leishmania major MHOM/IL/81/FEBNI infected Swiss albino mouse assessed as inhibition of autoamputation of inoculated footpad at 20 umol administered 21 days post infection measured after 5 weeks relative to untreated mouse; type: functional, organism-based
Leishmania major [5] = experiment: Antileishmanial activity against promastigote stage of Leishmania major MHOM/IL/81/FEBNI assessed as parasite motility at 10 umol measured every 10 min for 1 hr by light microscopic analysis; type: functional, organism-based
Leishmania major [6] = experiment: Antileishmanial activity against promastigote stage of Leishmania major MHOM/IL/81/FEBNI infected Swiss albino mouse assessed as decrease in parasite number in cutaneous lesion at 20 umol administered 21 days post infection measured after 5 weeks by Giemsa staining; type: functional, organism-based
Leishmania major [7] = experiment: Antileishmanial activity against promastigote stage of Leishmania major MHOM/IL/81/FEBNI infected Swiss albino mouse assessed as inhibition of lesion development in inoculated footpad at 20 umol administered 21 days post infection measured after 5 weeks relative to untreated mouse; type: functional, organism-based
Mus musculus [8] = experiment: Toxicity in Mus musculus Swiss albino (mouse) infected with promastigote stage of Leishmania major MHOM/IL/81/FEBNI assessed as severe irritation of epidermis at 20 umol administered 21 days post infection measured after 5 weeks; type: organism-based; settings: in vivo, 840 h
Leishmania major [9] = experiment: Antileishmanial activity against promastigote stage of Leishmania major MHOM/IL/81/FEBNI infected Swiss albino mouse assessed as decrease in parasite-induced inflammatory reaction in cutaneous lesion at 20 umol administered 21 days post infection measured after 5 weeks by Giemsa staining; type: functional, organism-based
Leishmania major [10] = experiment: Antileishmanial activity against promastigote stage of Leishmania major MHOM/IL/81/FEBNI infected Swiss albino mouse assessed as decrease in swelling and redness of inoculated footpad at 20 umol administered 21 days post infection measured after 5 weeks; type: functional, organism-based
Mus musculus [11] = experiment: Toxicity in Mus musculus Swiss albino (mouse) infected with promastigote stage of Leishmania major MHOM/IL/81/FEBNI assessed as vascular thrombosis at 20 umol administered 21 days post infection measured after 5 weeks; type: organism-based; settings: in vivo, 840 h
Mus musculus [12] = experiment: Toxicity in Mus musculus Swiss albino (mouse) infected with promastigote stage of Leishmania major MHOM/IL/81/FEBNI assessed as deposition of haemosidrin in macrophages at 20 umol administered 21 days post infection measured after 5 weeks; type: organism-based; settings: in vivo, 840 h

| Structure (SMILES) | inhibition (Leishmania major [1]) | Activity (Leishmania major [2]) | Activity (Leishmania major [3]) | inhibition of footpad autoamputation (active/not active) (Leishmania major [4]) | Activity (Leishmania major [5]) | Activity (Leishmania major [6]) | inhibition (Leishmania major [7]) | Activity (Mus musculus [8]) | Activity (Leishmania major [9]) | Activity (Leishmania major [10]) | Activity (Mus musculus [11]) | Activity (Mus musculus [12]) |
| --- | --- | --- | --- | --- | --- | --- | --- | --- | --- | --- | --- | --- |
| CC1=C(C(=O)NNC(=O)c2ccccc2O)C(c2ccc(N(C)C)cc2)NC(=O)N1 (stereo unspecified) | inactive | Active | Active | inactive | Active | inactive | inactive | – | – | – | – | – |
| CC1=C(C(=O)N(CCCl)CCCl)C(c2cccc([N+](=O)[O-])c2)NC(=S)N1 (stereo unspecified) | – | Active | – | – | Active | Active | – | Non-toxic | Active | Active | – | – |
| CC(=O)Nc1ccc(NC(=O)C2=C(C)NC(=O)NC2c2ccc(N(C)C)cc2)cc1 (stereo unspecified) | – | Active | Active | Active | Active | inactive | – | Toxic | – | – | Toxic | Toxic |
| CC1=C(C(=O)NNC(=O)c2ccccc2O)C(c2cccc([N+](=O)[O-])c2)NC(=O)N1 (stereo unspecified) | – | Active | – | – | Active | Active | – | Toxic | Active | Active | – | – |
| CC1=C(C(=O)N(CCO)CCO)C(c2cccc([N+](=O)[O-])c2)NC(=S)N1 (stereo unspecified) | – | Active | Active | Active | Active | inactive | – | – | – | – | – | – |
| COc1cc(C2NC(=S)NC(C)=C2C(=O)NNC(=O)c2ccccc2O)cc(OC)c1OC (stereo unspecified) | inactive | Active | Active | inactive | Active | inactive | inactive | – | – | – | – | – |
| CC1=C(C(=O)NNC(=O)c2ccccc2O)C(c2ccc(N(C)C)cc2)NC(=S)N1 (stereo unspecified) | – | Active | Active | Active | Active | inactive | – | – | – | – | – | – |
| CC1=C(C(=O)NNC(=O)c2ccccc2O)C(c2cccc([N+](=O)[O-])c2)NC(=S)N1 (stereo unspecified) | – | Active | – | – | Active | Active | – | Toxic | Active | Active | – | – |
| C/C=C/C(=O)NNC(=O)C1=C(C)NC(=S)NC1c1cccc([N+](=O)[O-])c1 (stereo unspecified) | – | Active | – | – | Active | Active | – | Non-toxic | Active | Active | – | – |
